Test results as given in patent US12605362B2, “Eletriptan hydrobromide for treatment of spinal cord injury and improvement of locomotor function” (TECHNOPHAGE, INVESTIGAÇÃO E DESENVOLVIMENTO EM …, priority 2020, dated 2026).
Counter-ions that a name gives are not always drawn.

How the values were obtained:
Format in all cases: in vivo
[1] = test system: mice with T9 contusion type of injury; assay: acetone evaporation assay (cold allodynia) after T9 contusion SCI; conditions: 14 dpi and 42 dpi, vs Vehicle
Protocol: (§1) A moderate-severe contusion-type of injury was performed on adult C57BL/6 female mice (10-12 weeks) with an Infinite Horizon Impactor (PSI)^30. All surgeries were performed under aseptic conditions. Briefly, under deep anesthesia with Ketamine and Xylazine (120 mg/kg and 16 mg/kg respectively, i.p.) mice received a dorsal laminectomy at the level of 9th thoracic vertebra (T9). After securing the lateral processes of the 8th thoracic vertebra (T8) and 10th thoracic vertebra (T10) with a stainless-steel impactor tip, a controlled force-defined impact at 75 kdyne was delivered to the exposed spinal cord^28,30. Then, muscle and skin were closed with 4.0 polyglycolic acid (PGA) absorbable sutures (Safil, G1048213). In this study, mice were excluded when the actual displacement value was outside the interval 500-700 μm or if the actual force after impact was >2SD 75 Kdyne. […] Weight was monitored daily until 15 days-post-injury (dpi) and then weekly for the duration of the study and a high caloric pellet (Supreme Mini-Treats™ S05478 and S05472) was provided as a dietary supplement since a 10% weight loss was typically observed in this SCI model upon injury. […]
An acetone evaporation assay was used to measure the sensitivity to a cold stimulus upon injury^33. […] In each trial, the time spent flicking or licking the hind paw for 60 seconds was measured using a timer and recorded for analysis^34. […]

[2] = test system: transected zebrafish larvae; assay: larval zebrafish phenotypic-based screen for SCI (transected spinal cord, DanioVision swimming activity)
Description: Tg(mnx1:GFP^m12), abbreviated as hb9:GFP were maintained and bred in constant conditions, by following standard guidelines for fish care and maintenance protocols^27. Zebrafish larvae were used in the phenotypic-based screen for SCI.
A larval zebrafish phenotypic-based screen was used to screen a pool of compounds from a small molecule library (PHARMAKON 1600-MicroSource Discovery Systems, Inc., USA) as previously described by Diana et al. 201928. Briefly, zebrafish larvae were allowed to develop in EM with 1 μM methylene blue until 5 days-post-fertilization (dpf). At 5dpf, zebrafish larvae spinal cords were transected at the level of the anal pore (Diana et al. 2019). At 1 dpi, larvae were randomly distributed into 6-well plates containing EM+10 mM HEPES and exposed during 24 hours to the chemical compounds added to the medium. At 2 dpi, behavioural assessment was performed using DanioVision™ (Noldus Information Technology, the Netherlands) an automated tracking system for zebrafish larvae. Larvae were allowed to freely swim in a 96-well plate (1 larva/well) with EM+10 mM HEPES and their swimming activity was tracked for […], under 10 minutes light-dark cycles (i.e. 3 light cycles and 3 dark cycles). The acquired track data was analysed using the Ethovision X.T. 10 software (Noldus, Wageningen, Netherlands) and only swimming activity obtained in the 3 dark periods were analysed^29.
To accelerate the discover of potential new therapeutics for spinal cord injury (SCI) we used a phenotypic assay that enabled the screening of a pool of chemical compounds from an FDA approved small molecules library. In this phenotypic-based screen, we blindly administered the chemical compounds (25 μM) at 1 day-post-injury (dpi) and we performed the behavioural assessment 24 hours later (i.e. at 2 dpi) as previously described by Chapela D. et al. 2019. The small molecules were first blindly selected, if there was a statistically significant improvement of total distance moved and/or turn angle parameters, which were chosen as indicators of locomotor function. […]

[3] = test system: mice with T9 contusion type of injury; assay: fibrotic scar quantification (PDGFRβ / GFAP immunohistochemistry); conditions: 42 dpi, vs Vehicle
Protocol: as §1, with “Kdyne. Immediately after injury, mice were injected subcutaneously with 0.5 ml of sterile saline and then daily for 5 days.” for “Kdyne.”
For immunohistochemistry in sections, OCT was removed from the cryosections using PBS (30 minutes). […] For activated microglia quantification, sections were counterstained with DAPI. […]
One set of sections was stained with anti-PDGFRβ and anti-GFAP to outline the border of the fibrotic scar area. Z-stack compositions were acquired in a motorized inverted widefield fluorescence microscope (Zeiss Cell Observer, Carl Zeiss MicroImaging) with 20× magnification. Fiji software was used to manually outline and calculate the PDGFRβ^+ area and total cross-sectional area to thereafter quantify the percentage of fibrotic scar area per total cross-sectional area. The rostral and caudal extents of fibrotic lesion were determined by inspection. […]

[4] = 25 μM from 1 dpi, assessed at 2 dpi, dark periods, vs vehicle

In the case of `CN1CCC[C@@H]1Cc1c[nH]c2ccc(CCS(=O)(=O)c3ccccc3)cc12` [Eletriptan Hbr, Eletriptan Hydrobromide], the “cumulative reaction time of nocifensive responses” value [1] is reported as “consistently but not a significantly decrease”, the “number of episodes of the cold hypersensitivity” value [1] is reported as “lower number of episodes” and the total distance moved [2, 4] is reported as “rescues motor impairments”. The turn angle [2, 4] was “rescues motor impairments”, the locomotor impairments ([2]; 25 μM in medium from 1 dpi for 24 hours, behavioural assessment at 2 dpi, vs vehicle treated injured larvae) was “rescue locomotor impairments” and the “extension of PDGFRβ+ lesion core” value [3] was “no statistically significant differences”. For the same molecule, the “extension of increased levels of PDGFRβ+ immunostaining” value [3] was “statistically significant reduction” and the “area of fibrotic lesion core” value ([3]; at lesion epicentre) was “no statistically significant differences”.
